Source: patent publication US6235929A, “Tripeptide α-ketoamides” (Georgia Tech Research Corporation, priority 1996, dated 2001)

How the values were obtained:
Half-life in liver = format: in vitro ADME; conditions: unit inferred, unit assumed
Half-life in plasma = conditions: unit inferred, unit assumed
[1] = molecular target: Calpain II from rabbit muscle; test: Calpain II inhibition, Suc-Leu-Tyr-AMC hydrolysis; format: biochemical
Description: HEPES, heparin, and A23187 were obtained from Calbiochem. […] Calpain II from rabbit muscle and cathepsin B were purchased from Sigma. Papain was purchased from Calbiochem.
(§1) Peptide α-ketoamides were assayed as reversible enzyme inhibitors. Various concentrations of inhibitors in Me2 SO were added to the assay mixture which contained buffer and substrate. The reaction was started by the addition of the enzyme and the hydrolysis rates were followed spectrophotometrically or fluorimetrically.
(§2) Calpain I from human erythrocytes and calpain II from rabbit were assayed using Suc-Leu-Tyr-AMC [Sasaki et al., J. Biol. Chem. 259, 12489-12494 (1984); incorporated herein by reference], and the AMC (7-amino-4-methylcoumarin) release was followed fluorimetrically (excitation at 380 nm, and emmision at 460 nm). Calpains were assayed in 25 mM Tris pH=8.0, 10 mM CaCl2. Fluorescence was followed using a Gilson FL-1A fluorometer or a Perkin-Elmer 203 Fluorescence spectrometer. Cathepsin B was assayed in 20 mM sodium acetate pH=5.2, 0.5 mM dithiothreitol using Bz-Phe-Val-Arg-p-nitroanilide as substrate. Alternately, cathepsin B was assayed with Z-Arg-Arg-AFC [Barrett and Kirschke, Methods Enzymol. […] Enzymatic hydrolysis rates were measured at various substrate and inhibitor concentrations, and KI values were determined by either Lineweaver-Burk plots or Dixon plots. […]

[2] = molecular target: T1, Calpain I from human erythrocytes (Homo sapiens, UniProt P07384); test: Calpain I inhibition, Suc-Leu-Tyr-AMC hydrolysis; format: biochemical; conditions: ratio of KI values
T1 construct: Calpain I was purified from human erythrocytes; from tissue; host or cells: human erythrocytes
T1 sequence (P07384 1-714): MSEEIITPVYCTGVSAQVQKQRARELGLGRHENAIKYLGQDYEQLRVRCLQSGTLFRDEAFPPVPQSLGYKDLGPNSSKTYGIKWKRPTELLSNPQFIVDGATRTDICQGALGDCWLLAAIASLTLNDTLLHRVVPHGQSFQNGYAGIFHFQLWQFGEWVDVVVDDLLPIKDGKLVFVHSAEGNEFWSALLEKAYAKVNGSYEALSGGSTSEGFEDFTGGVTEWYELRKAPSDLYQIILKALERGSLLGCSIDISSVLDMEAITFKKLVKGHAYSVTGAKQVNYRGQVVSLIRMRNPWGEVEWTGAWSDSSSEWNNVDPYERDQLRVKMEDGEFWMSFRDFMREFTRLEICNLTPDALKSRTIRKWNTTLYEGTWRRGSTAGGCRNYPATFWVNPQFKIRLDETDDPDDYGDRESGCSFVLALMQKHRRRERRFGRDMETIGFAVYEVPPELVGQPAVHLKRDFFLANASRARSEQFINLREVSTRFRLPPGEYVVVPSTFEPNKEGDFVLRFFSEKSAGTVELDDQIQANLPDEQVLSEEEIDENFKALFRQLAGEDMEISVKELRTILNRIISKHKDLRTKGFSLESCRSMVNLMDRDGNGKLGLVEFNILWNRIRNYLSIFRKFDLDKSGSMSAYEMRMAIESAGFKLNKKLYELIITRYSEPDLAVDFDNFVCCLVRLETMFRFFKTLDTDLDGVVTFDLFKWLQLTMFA
T1 sequence (P04632 1-268 partner): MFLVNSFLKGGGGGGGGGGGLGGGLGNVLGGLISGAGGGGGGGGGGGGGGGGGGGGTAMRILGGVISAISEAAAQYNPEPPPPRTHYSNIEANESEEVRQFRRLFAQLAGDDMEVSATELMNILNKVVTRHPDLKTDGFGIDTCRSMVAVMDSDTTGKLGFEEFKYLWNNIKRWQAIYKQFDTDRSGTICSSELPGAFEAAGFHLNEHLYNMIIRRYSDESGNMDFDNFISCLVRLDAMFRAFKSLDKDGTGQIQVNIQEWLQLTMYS
Description: (§3) HEPES, heparin, and A23187 were obtained from Calbiochem. Suc--Leu--Tyr--AMC and chromogenic substrates were obtained from Sigma Calpain I was purified from human erythrocytes according to the method of Kitahara (Kitahara et al., J. Biochem. 95, 1759-1766) omitting the Blue-Sepharose step. Calpain II from rabbit muscle and cathepsin B were purchased from Sigma. Papain was purchased from Calbiochem.
as §1
as §2, with “spectrometer.” for “spectrometer. Cathepsin B was assayed in 20 mM sodium acetate pH=5.2, 0.5 mM dithiothreitol using Bz-Phe-Val-Arg-p-nitroanilide as substrate. Alternately, cathepsin B was assayed with Z-Arg-Arg-AFC [Barrett and Kirschke, Methods Enzymol.”

cathepsin B = molecular target: T2, cathepsin B (Homo sapiens, UniProt P07858); test: Cathepsin B inhibition; format: biochemical
T2 construct: purchased Sigma
Description: as §3, §1
as §2, with “spectrometer.” for “spectrometer. Cathepsin B was assayed in 20 mM sodium acetate pH=5.2, 0.5 mM dithiothreitol using Bz-Phe-Val-Arg-p-nitroanilide as substrate. Alternately, cathepsin B was assayed with Z-Arg-Arg-AFC [Barrett and Kirschke, Methods Enzymol.”

Compound	t1/2 liver (Half-life in liver) [h]	t1/2 plasma (Half-life in plasma) [h]	other results
CC(C)CC(NC(=O)OCc1ccccc1)C(=O)NC(Cc1ccccc1)C(=O)C(=O)O (stereo not drawn) [Z-Leu-Phe-COOH, reference compound]	> 1	> 1	
CCCC(NC(=O)C(CC(C)C)NC(=O)OCc1ccccc1)C(=O)C(=O)OCC (stereo not drawn) [Z-Leu-Nva-COOEt, reference compound]		0.0467	
CCCNC(=O)C(=O)[C@H](CC)NC(=O)[C@H](CC(C)C)NC(=O)OCc1ccccc1 [Z-Leu-Abu-CONH-nPr, Z--Leu--Abu--CONH--nPr]	> 1	> 1	
CC[C@H](NC(=O)[C@H](CC(C)C)NC(=O)OCc1ccccc1)C(=O)C(=O)NCCc1ccccc1 [Z-Leu-Abu-CONH--(CH2)2 -Ph, Z--Leu--Abu--CONH--(CH2)2 Ph]			KI Calpain II [1]: best inhibitor
CCCCNC(=O)C(=O)C(Cc1ccccc1)NC(=O)C(CC(C)C)NC(=O)OCc1ccccc1 (stereo not drawn) [Z-Leu-Phe-CONH-nBu, Z--Leu--Phe--CONH--nBu]	> 1	> 1	
CC(C)CC(NC(=O)OCc1ccccc1)C(=O)NC(Cc1ccccc1)C(=O)C(=O)OCc1ccccc1 (stereo not drawn) [Z-Leu-Phe-COOBz]		0.0317	
CCCCOC(=O)C(=O)[C@H](Cc1ccccc1)NC(=O)[C@H](CC(C)C)NC(=O)OCc1ccccc1 [Z-Leu-Phe-COOnBu]		0.128	
CCCCNC(=O)C(=O)C(CC)NC(=O)C(CC(C)C)NC(=O)OCc1ccccc1 (stereo not drawn) [Z-Leu-Abu-CONH-nBu, Z--Leu--Abu--CONH--nBu]	> 1	> 1	
CCC(NC(=O)C(CC(C)C)NC(=O)OCc1ccccc1)C(=O)C(=O)O (stereo not drawn) [Z-Leu-Abu-COOH, reference compound]	> 1	> 1	
CCOC(=O)C(=O)[C@H](CC)NC(=O)[C@H](CC(C)C)NC(=O)[C@H](CC(C)C)NC(=O)c1ccc2ccccc2c1 [2-NapCO-Leu-Leu-Abu-COOEt]		0.417	
CC(C)C[C@H](NC(=O)OCc1ccccc1)C(=O)N[C@@H](Cc1ccccc1)C(=O)C(=O)NCCc1ccccc1 [Z-Leu-Phe-CONH(CH2)2 Ph, Z--Leu--Phe--CONH--(CH2)2 Ph]		> 1	
CCCNC(=O)C(=O)C(Cc1ccccc1)NC(=O)C(CC(C)C)NC(=O)OCc1ccccc1 (stereo not drawn) [Z-Leu-Phe-CONH-nPr, Z--Leu--Phe--CONH--nPr]	> 1	> 1	
CCOC(=O)C(=O)C(CC)NC(=O)C(CC(C)C)NC(=O)C(CC(C)C)NS(=O)(=O)c1ccc2ccccc2c1 (stereo not drawn) [2-NapSO2-Leu-Leu-Abu-COOEt, reference compound]		> 1	
CCNC(=O)C(=O)[C@H](CC)NC(=O)[C@H](CC(C)C)NC(=O)OCc1ccccc1 [Z-Leu-Abu-CONH-Et, Z--Leu--Abu--CONH--Et]	> 1	> 1	fold better inhibitor of calpain I than Z--Leu--Phe--CONH--Et [2]: 14 fold; KI Cath B (cathepsin B): best inhibitor
CCC(NC(=O)C(CC(C)C)NC(=O)OCc1ccccc1)C(=O)C(=O)NCC(C)C (stereo not drawn) [Z-Leu-Abu-CONH-iBu, Z--Leu--Abu--CONH--iBu]		> 1	
CCOC(=O)C(=O)[C@H](CC)NC(=O)[C@H](CC(C)C)NC(=O)OCc1ccccc1 [Z-Leu-Abu-COOEt, reference compound]		0.0467	
CCOC(=O)C(=O)C(CCSC)NC(=O)C(CC(C)C)NC(=O)OCc1ccccc1 (stereo not drawn) [Z-Leu-Met-COOEt]		0.133	
CC(C)CNC(=O)C(=O)[C@H](Cc1ccccc1)NC(=O)[C@H](CC(C)C)NC(=O)OCc1ccccc1 [Z-Leu-Phe-CONH-iBu, Z--Leu--Phe--CONH--iBu]		> 1	
CCNC(=O)C(=O)[C@H](Cc1ccccc1)NC(=O)[C@H](CC(C)C)NC(=O)OCc1ccccc1 [Z-Leu-Phe-CONH-Et, Z--Leu--Phe--CONH--Et]	> 1	> 1	
CCOC(=O)C(=O)C(Cc1ccccc1)NC(=O)C(CC(C)C)NC(=O)OCc1ccccc1 (stereo not drawn) [Z-Leu-Phe-COOEt, Z--Leu--Phe--COOEt, reference compound]		0.13	
CCC(NC(=O)C(CC(C)C)NC(=O)OCc1ccccc1)C(=O)C(=O)NCc1ccccc1 (stereo not drawn) [Z-Leu-Abu-CONH-Bzl, Z--Leu--Abu--CONH--Bzl]	> 1	> 1	
CCCCC(NC(=O)C(CC(C)C)NC(=O)OCc1ccccc1)C(=O)C(=O)OCC (stereo not drawn) [Z-Leu-Nle-COOEt, reference compound]		0.0617	
